The text below walks through data of US20190069544A1, “COMPOSITION COMPRISING A MEL, A FATTY ACID METHYL ESTER AND A NON-IONIC […] A HLB VALUE GREATER THAN OR EQUAL TO 12” (OLEON NV, priority 2016, published 2019).

In experiment [1] the test system is chenopodium plants (Chenopodium album). The experiment can be described thus: Herbicide effectiveness: destruction of the vegetation, naked eye, 14 days after treatment. It counts as in vivo. The procedure:
(§1) Composition 2 according to the invention prepared in Example 1 was used in combination with an herbicide active ingredient (glyphosate) in the treatment of chenopodium plants (Chenopodium album). The chenopodium plants used were at a 2 to 3 leaves stage (BBCH 12-13), and were grown in a phytotron at a temperature of 15° C. during the night and 20° C. during the day, with a photoperiod of 14 hours. The glyphosate used was non-formulated (technical ingredient, reference 4521, Sigma-Aldrich®). […]
Evaluation of the effectiveness was also carried out by observation of the plants with the naked eye 14 days after treatment. The effectiveness is evaluated in percentage of destruction of the vegetation, taking into account the size of the plants and the symptoms of phytotoxicity such as deformation of the leaves, the appearance of white patches and necrosis.

Experiment [2] has the same test system. As to the kind of experiment: Cell activity of plant roots by fluorescent markers after treatment. It counts as in vivo. The conditions noted are these: 24 to 48 h after treatment, 500 g/ha, 2% ammonium sulphate (FIG. 10). On the procedure:
as §1
The evaluation of the effectiveness was carried out by measuring the cell activity of the roots of the plants 24 to 48 h after treatment. The cell activity is measured by staining the cells using fluorescent markers making it possible to distinguish: • the cells having a metabolic activity (living cells), which emit a green fluorescence; • the structures which emit a blue fluorescence; and • the dead cells, which emit a red fluorescence.
When the cell metabolic activity reduces, the green fluorescence reduces.

With `O=C(O)CNCP(=O)(O)O` [glyphosate], in experiment [1] (14 days after treatment (FIGS. 11, 12)), the “Phytotoxicity, in words” value is “not observed”. Further, in experiment [1] (14 days after treatment, dose 500 g/ha, 2% ammonium sulphate, average of 4 pots of 4 plants), the “Effectiveness (average), percentage of destruction of the vegetation” value was 0%. The “Reduction in the intensity of the fluorescence in the cells of the roots (cell metabolic activity)” value in experiment [2] is given as “not observed”.
